Results published in US8741903B2, “Organic compound for use in the treatment of hepatocellular cancer (HCC)” (priority 2010, dated 2014).
Where two headings read alike, the source gives them in different places.

Tests used:
[1] = test system: PLC/PFR/5 human HCC xenografts; experiment: PLC/PFR/5 human HCC subcutaneous xenograft in female nude mice; conditions: 24 days; for % T/C (ΔT/ΔC %, tumor volume): PLC/PFR/5 xenograft
[2] = test system: HUH7 human HCC xenografts; type: in vivo; conditions: 21 days, HUH7 xenograft
Method: 12 days after the injection of tumor cells the tumor volumes are 138±24 mm^3.
Each group contains 8 animals. […] The application volumes in all experiments were 10 ml/kg.

HCC = HCC patients of Asia-Pacific region; cited from earlier work
unresectable HCC = conditions: 1st line treatment, patients with unresectable HCC; cited from earlier work
[3] = 50 mg/kg p.o. qd, statistically significant

| SMILES | % T/C (ΔT/ΔC %, tumor volume) ([1]; 10 mg/kg p.o. qd) [%] | % T/C (ΔT/ΔC %, tumor volume) ([1]; 30 mg/kg p.o. qd) [%] | % T/C (ΔT/ΔC %, tumor volume) [1, 3] [%] | effect on body weight as compared to the vehicle-treated group ([1]; 10, 30 and 50 mg/kg p.o. qd) | % T/C (ΔT/ΔC %, tumor volume) ([2]; 10 mg/kg p.o. qd) [%] | % T/C (ΔT/ΔC %, tumor volume) ([2]; 30 mg/kg p.o. qd, statistically significant) [%] | % T/C (ΔT/ΔC %, tumor volume) [2, 3] [%] | median overall survival (HCC) [months] | median overall survival (unresectable HCC) [months] |
| --- | --- | --- | --- | --- | --- | --- | --- | --- | --- |
| CN1CCN(c2ccc3nc(-c4c(N)c5c(F)cccc5[nH]c4=O)[nH]c3c2)CC1 [Compound I, 4-amino-5-fluoro-3-[6-(4-methylpiperazin-1-yl)-1H-benzimidazol-2-yl]-1H-quinolin-2-one] | 67 | 47 | 19 | no significant effect on body weight | 75 | 40 | 20 |  |  |
| CNC(=O)c1cc(Oc2ccc(NC(=O)Nc3ccc(Cl)c(C(F)(F)F)c3)cc2)ccn1 [sorafenib] |  |  |  |  |  |  |  | 6.5 | 10.7 |
